Test results from patent US12152038B2, “Vasopressin receptor antagonists and products and methods related thereto” (Neumora Therapeutics, Inc., priority 2017, dated 2024).
Like-named read-outs stand apart in the source and are kept apart here.

How the values were obtained:
MDR1 (P-glycoprotein) = target: T1, MDR1 (P-glycoprotein) (Homo sapiens, UniProt P08183); assay: MDR1-MDCK permeability and efflux assay (Papp, efflux ratio, effective efflux ratio); type: in vitro ADME; details: for EER (Effective Efflux Ratio): ER(MDR1-MDCK)/ER(wild-type MDCK); for ER MDR1 (Efflux Ratio): Papp B>A/Papp A>B
T1 construct: host or cells: MDCK (MDR1-MDCK; wild-type MDCK as comparator)
Procedure, shortened: (§1)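 Confluent WT or MDR1-MDCK monolayers (3-day culture) dosed with 10 μM compound, 0.1% DMSO, in HBSS/25 mM HEPES pH 7.4, A>B and B>A, 1 h at 37 °C; LC-MS/MS quantitation. Papp from acceptor/donor ratio; efflux ratio = Papp B>A/A>B; EER = ER(MDR1)/ER(WT).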

V1a receptors = target: T2, V1a receptors (Rattus norvegicus, UniProt P30560); assay: AVP induced phospho-ERK measurement in rat choroid plexus (RCP) cells; type: cell-based; details: RCP cells stimulated with AVP, pERK1/2 to total ERK1/2 ratio
T2 construct: Rat choroid plexus (RCP) cell lines express functional V1a receptors; endogenous in cells; host or cells: rat choroid plexus (RCP) cell line, RCP P9(18)
Procedure: Rat choroid plexus (RCP) cell lines express functional V1a receptors measured by increased calcium concentrations in response to V1a receptor agonists (Battle et al., Biochem. Biophys. Res. Comm. 2000).
RCP P9(18) cells were seeded 30K/well, in 100 μl growth medium containing 10% FBS in polystyrene 96-well plates and incubated at 37° C., 5% CO2 and incubated overnight. The following day, the growth medium was replaced with 50 μl pre-warmed HBSS containing 20 mM HEPES and the cells were incubated at 37° C., 5% CO2 for 1.5 hrs. 1 mM AVP (Sigma V9879) was freshly prepared in distilled water in a glass vial and diluted to 3× concentrations in HBSS containing 20 mM HEPES and 0.1% BSA in glass vials and kept on ice. […] Final concentrations of AVP: 10, 100 or 1000 nM. […] Cells were lysed with 25 μl 4×CST lysis buffer containing protease and phosphatase inhibitors, PMSF and SDS and then stored at −80° C., for 48 h. The lysates were thawed, centrifuged at 2000 g for 30 min at 4° C. and 40 μl supernatants assayed for pERK1/2 (Thr202/Tyr204; Thr185/Tyr187) and total ERK1/2 using MSD kit K15107D. The MSD ECL data for the lysates were corrected for no cell blanks, then phospho-protein levels expressed as a ratio to the total ERK1/2 level. The ratios were expressed as fold-change from the vehicle-treated control at each timepoint.

[1] = tested on: wild-type (WT) MDCK cells; assay: Wild-type MDCK permeability and efflux assay (Papp, efflux ratio); type: in vitro ADME; details: for Papp AB WT: A->B; for ER WT (Efflux Ratio): Papp B>A/Papp A>B
Procedure, shortened: as §1

T1 sequence (P08183 whole entry): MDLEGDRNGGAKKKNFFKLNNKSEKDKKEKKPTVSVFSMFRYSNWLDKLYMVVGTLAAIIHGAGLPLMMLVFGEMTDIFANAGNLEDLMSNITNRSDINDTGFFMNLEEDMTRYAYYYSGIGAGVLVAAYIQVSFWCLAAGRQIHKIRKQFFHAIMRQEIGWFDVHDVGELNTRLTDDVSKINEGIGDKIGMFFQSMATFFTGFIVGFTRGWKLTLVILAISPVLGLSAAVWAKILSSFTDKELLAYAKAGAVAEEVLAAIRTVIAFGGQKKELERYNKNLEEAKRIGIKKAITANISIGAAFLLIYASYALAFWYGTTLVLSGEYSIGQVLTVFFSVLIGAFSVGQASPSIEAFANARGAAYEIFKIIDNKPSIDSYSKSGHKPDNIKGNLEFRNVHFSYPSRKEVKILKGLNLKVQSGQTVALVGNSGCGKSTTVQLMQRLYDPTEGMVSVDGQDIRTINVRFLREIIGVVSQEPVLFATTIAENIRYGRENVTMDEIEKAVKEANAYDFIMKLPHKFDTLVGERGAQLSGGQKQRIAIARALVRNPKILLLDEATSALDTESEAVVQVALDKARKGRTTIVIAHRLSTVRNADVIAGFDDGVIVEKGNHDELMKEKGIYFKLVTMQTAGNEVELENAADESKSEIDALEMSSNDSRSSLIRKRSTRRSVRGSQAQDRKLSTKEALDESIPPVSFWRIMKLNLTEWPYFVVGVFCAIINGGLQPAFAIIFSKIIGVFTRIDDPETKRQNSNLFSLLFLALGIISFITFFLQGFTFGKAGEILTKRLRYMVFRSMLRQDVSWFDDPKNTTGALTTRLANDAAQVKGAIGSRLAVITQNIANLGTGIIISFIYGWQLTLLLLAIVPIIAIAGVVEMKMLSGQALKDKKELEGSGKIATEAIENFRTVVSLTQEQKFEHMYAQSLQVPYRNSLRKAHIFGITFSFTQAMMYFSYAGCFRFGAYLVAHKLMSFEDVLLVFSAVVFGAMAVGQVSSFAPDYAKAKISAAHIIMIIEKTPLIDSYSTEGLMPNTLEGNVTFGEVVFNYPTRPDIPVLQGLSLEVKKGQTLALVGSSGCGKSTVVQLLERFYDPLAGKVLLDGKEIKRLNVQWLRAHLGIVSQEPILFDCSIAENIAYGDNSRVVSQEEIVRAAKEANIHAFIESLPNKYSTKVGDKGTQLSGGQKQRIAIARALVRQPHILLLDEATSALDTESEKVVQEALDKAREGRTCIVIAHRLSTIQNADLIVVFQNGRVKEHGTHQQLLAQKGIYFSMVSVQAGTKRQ
T2 sequence (P30560 whole entry): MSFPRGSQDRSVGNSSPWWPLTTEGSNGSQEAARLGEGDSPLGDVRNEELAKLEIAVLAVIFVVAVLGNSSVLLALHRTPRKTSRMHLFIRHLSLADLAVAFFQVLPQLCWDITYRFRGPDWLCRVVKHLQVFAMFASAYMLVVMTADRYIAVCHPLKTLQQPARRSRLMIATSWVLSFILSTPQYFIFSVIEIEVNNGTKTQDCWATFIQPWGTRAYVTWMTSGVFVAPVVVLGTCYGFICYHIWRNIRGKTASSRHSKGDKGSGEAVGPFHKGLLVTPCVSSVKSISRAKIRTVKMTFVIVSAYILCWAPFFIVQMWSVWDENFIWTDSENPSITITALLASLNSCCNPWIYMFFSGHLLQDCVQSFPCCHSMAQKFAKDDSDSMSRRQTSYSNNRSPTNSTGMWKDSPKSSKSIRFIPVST

SMILES	efflux ratio at 1 h, 10 μM (MDR1 (P-glycoprotein); dog, MDCK-MDR1, pH 7.4, ER(MDR1-MDCK)/ER(wild-type MDCK), read-out: EER (Effective Efflux Ratio))	efflux ratio at 1 h, 10 μM (MDR1 (P-glycoprotein); dog, MDCK-MDR1, pH 7.4, Papp B>A/Papp A>B, MDR1-MDCK cells, read-out: ER MDR1 (Efflux Ratio))	Papp A→B at 1 h, 10 μM (MDR1 (P-glycoprotein); dog, pH 7.4, A->B, MDR1-MDCK cells, read-out: Papp AB MDR1)	IC50 (V1a receptors; first study)	IC50 (V1a receptors; second study)	Papp AB MDR1 (MDR1 (P-glycoprotein); A->B, MDR1-MDCK cells)	EER (Effective Efflux Ratio) (MDR1 (P-glycoprotein))	ER MDR1 (Efflux Ratio) (MDR1 (P-glycoprotein); MDR1-MDCK cells)	Papp AB WT [1]	ER WT (Efflux Ratio) [1]
CC1COc2cc(Cl)ccc2N1C(=O)N1CC2(C1)CN(c1ncccn1)C2 (single isomer, unassigned) [1-83-B, (7-chloro-3-methyl-2,3-dihydro-4H-benzo[b][1,4]oxazin-4-yl)(6-(pyrimidin-2-yl)-2,6-diazaspiro[3.3]heptan-2-yl)methanone]	1 to 2	1 to 2	> 20 ×10⁻⁶ cm/s	16 nM	20 nM	–	–	–	–	–
CC1COc2cc(F)ccc2N1C(=O)N1CC2(C1)CN(c1ccc(F)cn1)C2 (single isomer, unassigned) [12-1-B]	–	–	–	–	–	++++ (>20 (10^−6 cm/sec) is highly permeable (++++))	+++ (>1 but <2 has moderate probability of being an efflux substrate (+++))	++++ (efflux ratio or effective efflux ratio of <1 has low probability of being an efflux substrate (++++))	++++ (>20 (10^−6 cm/sec) is highly permeable (++++))	++++ (efflux ratio or effective efflux ratio of <1 has low probability of being an efflux substrate (++++))
Cc1cncc(N2CC3(CN(C(=O)N4c5ccc(F)cc5OCC4C)C3)C2)n1 (single isomer, unassigned) [20-2-B]	–	–	–	–	–	++++ (>20 (10^−6 cm/sec) is highly permeable (++++))	+++ (>1 but <2 has moderate probability of being an efflux substrate (+++))	+++ (>1 but <2 has moderate probability of being an efflux substrate (+++))	++++ (>20 (10^−6 cm/sec) is highly permeable (++++))	++++ (efflux ratio or effective efflux ratio of <1 has low probability of being an efflux substrate (++++))
CC1COc2cc(Cl)ccc2N1C(=O)N1CC2(C1)CN(c1cc(C#N)ccn1)C2 (single isomer, unassigned) [20-6-B]	–	–	–	–	–	++++ (>20 (10^−6 cm/sec) is highly permeable (++++))	++++ (efflux ratio or effective efflux ratio of <1 has low probability of being an efflux substrate (++++))	++++ (efflux ratio or effective efflux ratio of <1 has low probability of being an efflux substrate (++++))	++++ (>20 (10^−6 cm/sec) is highly permeable (++++))	++++ (efflux ratio or effective efflux ratio of <1 has low probability of being an efflux substrate (++++))
Cc1nc(N2CC3(CN(C(=O)N4c5ccc(Cl)cc5OCC4C)C3)C2)ncc1F (single isomer, unassigned) [20-7-B]	–	–	–	–	–	++++ (>20 (10^−6 cm/sec) is highly permeable (++++))	+++ (>1 but <2 has moderate probability of being an efflux substrate (+++))	++++ (efflux ratio or effective efflux ratio of <1 has low probability of being an efflux substrate (++++))	++++ (>20 (10^−6 cm/sec) is highly permeable (++++))	++++ (efflux ratio or effective efflux ratio of <1 has low probability of being an efflux substrate (++++))
